1 compound from patent publication US8697385B1, “Protein controlling synthesis of collagen and associated methods” (Florida State University Research Foundation, Inc., priority 2009, dated 2014) can be followed below.

Test [1] deals with human lung fibroblasts. Nature of the test: Western blot analysis of cellular and medium collagen polypeptides, lung fibroblasts. Format: cell-based. The conditions noted are these: 16 h, ML-7 40 μM, blebbistatin 100 μM, vs control cells. The method, then: ML-7, blebbistatin, cytochalasin B, puromycin, and cycloheximide were purchased from Sigma. ML-7 was used at 40 μM, blebbistatin was used at 100 μM, and cytochalasin B was used at 20 μM. Cells were incubated with the drugs for 16 h before analysis. Puromycin (200 μg/ml) and cycloheximide (100 μg/ml) were added to the cells for 2 h. Human lung fibroblasts have been described previously.16 Scleroderma fibroblasts were purchased from the European Collection of Cell Cultures (cell line BM0070) and derived from the skin of a scleroderma patient. MEFs were derived from knock-in mice in which the 5′SL of the collagen α1(I) gene has been mutated (Parsons et al., submitted). Several independent cell isolates were used throughout the study. All cells were cultured in Dulbecco's modified Eagle's medium supplemented with 10% fetal bovine serum for up to 10 passages. Plasmid constructs and adenovirus preparation. The HA-tagged LARP6 clone and the deletion mutants have been described previously.^16 Adenoviruses were constructed by recloning of the constructs into the pAdCMVTRACK vector, followed by recombination with the pAdEasy vector and amplification, as described previously.^48 Expression of each construct was verified by Western blot analysis. The viruses made express both the full-size test protein and the green fluorescent protein (GFP), which is encoded by an independent transcription unit.^48 Expression of GFP served as control for viral transduction. RT-PCR analysis Total cellular RNA was isolated using an RNA isolation kit (Sigma). RT-PCRs were performed with 100 ng of total RNA or using rTth reverse transcriptase (Boca Scientific, Boca Raton, Fla.). [^32P]dCTP was included in the PCR step to label the products, which were resolved on sequencing gels, as described previously.^8,31,49,50 When RNA from polysomal fractions was analyzed, an equal aliquot of each fraction was used. The number of cycles was adjusted to within the linear range of the reaction. The primers used for RT-PCR were as follows: h-collagen α1(I), 5′ primer […] (SEQ ID NO:3) and 3′ primer […] (SEQ ID NO:4); h-collagen α2(I), 5′ primer […] (SEQ ID NO:5) and 3′ primer […] (SEQ ID NO:6).
Protein concentration was estimated by the Bradford assay, with bovine serum albumin as standard.^51 Western blot analyses of cellular proteins were performed using 50 μg of protein. For Western blot analysis of secreted proteins, equal numbers of cells were seeded, serum-free medium was added to the cells, and incubation continued for 3 h. The medium was collected, and an aliquot was analyzed directly by Western blot analysis. Use of serum free medium in collecting secreted proteins is essential because fetal calf serum contains substantial amounts of collagen and fibronectin.^15,31 For immunostaining, cells were seeded onto glass coverslips. After treatment, the cells were fixed with 4% paraformaldehyde for 30 min at room temperature and permeabilized with 0.5% Triton X-100 in phosphatebuffered saline (PBS) for 10 min. After the cells had been blocked with 10% goat serum/5% bovine serum albumin in PBS for 1 h at room temperature, they were incubated with primary antibody overnight at 4° C., washed, and visualized with AlexaFluor594-conjugated or Cy-2-conjugated secondary antibodies. The cells were mounted using VECTASHIELD mounting medium containing […], 6-diamidino-2-phenylindole (Vector Laboratories), and images were taken by a Leica TCS SP2 AOBS laser confocal microscope equipped with a Chameleon Ti: Sapphire multiphoton laser. Optical sections were processed with LCSLite software.
To assess the role of nonmuscle myosin in collagen synthesis, we disrupted nonmuscle myosin filaments in two different cell types: primary human lung fibroblasts and primary scleroderma skin fibroblasts. These cells are responsible for lung and skin fibrosis. […]
For orientation: In western blotting, separated proteins are transferred to a membrane and probed.

The test system of test [2] is calnexin. Nature of the test: Immunostaining for the ER marker protein calnexin. The format is cell-based. The conditions noted are these: ML-7-treated cells vs control cells. As for the experimental part:
Protein concentration was estimated by the Bradford assay, with bovine serum albumin as standard.^51 Western blot analyses of cellular proteins were performed using 50 μg of protein. For Western blot analysis of secreted proteins, equal numbers of cells were seeded, serum-free medium was added to the cells, and incubation continued for 3 h. The medium was collected, and an aliquot was analyzed directly by Western blot analysis. Use of serum free medium in collecting secreted proteins is essential because fetal calf serum contains substantial amounts of collagen and fibronectin.^15,31 For immunostaining, cells were seeded onto glass coverslips. […]
To assess the role of nonmuscle myosin in collagen synthesis, we disrupted nonmuscle myosin filaments in two different cell types: primary human lung fibroblasts and primary scleroderma skin fibroblasts. […] To assess the effect of ML-7 on collagen protein synthesis and secretion, we analyzed the levels of collagen α1(I) and α2(I) polypeptides in the intracellularly space and in the medium using Western blot analysis and chain-specific antibodies.^12,15,31-33 ML-7 treatment profoundly affected the secretion of type I collagen, but the effect differed in the two types of primary fibroblasts. […]

Test [3] concerns wild-type (WT) MEFs. Nature of the test: Western blot analysis of collagen α1(I) polypeptide, WT MEFs. The settings on record: ML-7 treatment. Format: cell-based, mouse. As for the experimental part: (§1) ML-7, blebbistatin, cytochalasin B, puromycin, and cycloheximide were purchased from Sigma. ML-7 was used at 40 μM, blebbistatin was used at 100 μM, and cytochalasin B was used at 20 μM. Cells were incubated with the drugs for 16 h before analysis. Puromycin (200 μg/ml) and cycloheximide (100 μg/ml) were added to the cells for 2 h. Human lung fibroblasts have been described previously.16 Scleroderma fibroblasts were purchased from the European Collection of Cell Cultures (cell line BM0070) and derived from the skin of a scleroderma patient. MEFs were derived from knock-in mice in which the 5′SL of the collagen α1(I) gene has been mutated (Parsons et al., submitted). Several independent cell isolates were used throughout the study. All cells were cultured in Dulbecco's modified Eagle's medium supplemented with 10% fetal bovine serum for up to 10 passages. […] [^32P]dCTP was included in the PCR step to label the products, which were resolved on sequencing gels, as described previously.^8,31,49,50 When RNA from polysomal fractions was analyzed, an equal aliquot of each fraction was used. […]
(§2) Protein concentration was estimated by the Bradford assay, with bovine serum albumin as standard.^51 Western blot analyses of cellular proteins were performed using 50 μg of protein. […] The medium was collected, and an aliquot was analyzed directly by Western blot analysis. […]

For test [4], the system named is nonmuscle myosin filaments. Nature of the test: Immunostaining of nonmuscle myosin IIB filaments in lung fibroblasts. The format is cell-based. The settings on record: human lung fibroblasts; ML-7 40 μM 16 h; untreated cells show prominent filaments. The method, then:
as §1, §2

The test system of test [5] is Δ5′SL MEFs. Nature of the test: Western blot analysis of collagen α1(I) polypeptide, Δ5′SL MEFs. The format is cell-based, mouse. The settings on record: ML-7 treatment. As for the experimental part:
as §1, §2

On to `O=S(=O)(c1cccc2c(I)cccc12)N1CCCNCC1` [ML-7], for which, in test [1] (cytochalasin B 20 μM), the “secretion of collagen α1(I) polypeptide into the medium” value is “found in similar amounts”, the “secretion of collagen α2(I) polypeptide into the medium” value is listed as “secreted only in trace amounts” and the secretion/expression of fibronectin result is recorded as “not affected”. In addition, the “intracellular level of collagen α1(I) and α2(I) polypeptides” value in test [1] is on record as “not significantly affected”. Further, the “calnexin immunostaining (organization of the ER)” value in test [2] is on record as “did not show a difference”. Also, in test [3], the “cellular level of α1(I) polypeptide” value is reported as “did not change” and the “secretion of α1(I) polypeptide into the medium” value is reported as “drastically reduced”. Also, in test [4], the “myosin IIB immunostaining (filaments)” value is on record as “myosin staining is confined around the nucleus”. Also, the “secretion of α1(I) polypeptide into the medium” value in test [5] is recorded as “did not affect”.
